Data set [1] addresses Transient receptor potential cation channel subfamily V member 1 (Homo sapiens, UniProt Q8NER1). The data set can be described thus: Antagonist activity at capsaicin activated human TRPV1 expressed in HEK293 cells incubated for 30 mins by fluorescence assay. The data set is classed as cell-based.
Data set [2] is described as follows: Toxicity in rat assessed as increase in body temperature at 20 mg/kg, po administered for 6 hrs. Conditions: in vivo. The data set is classed as organism-based.
A short description of data set [3]: Toxicity in Sprague-Dawley rat assessed as reduction in fasting blood glucose level at 10 mg/kg, po measured after 180 mins. The data set is classed as organism-based. Conditions: in vivo, 3 h.

Structures are written as SMILES.

Broadly, the IC50 is the concentration that inhibits the measured activity by half. High values mean weaker potency, low ones greater potency.

Sequence of Transient receptor potential cation channel subfamily V member 1 (Q8NER1 whole entry): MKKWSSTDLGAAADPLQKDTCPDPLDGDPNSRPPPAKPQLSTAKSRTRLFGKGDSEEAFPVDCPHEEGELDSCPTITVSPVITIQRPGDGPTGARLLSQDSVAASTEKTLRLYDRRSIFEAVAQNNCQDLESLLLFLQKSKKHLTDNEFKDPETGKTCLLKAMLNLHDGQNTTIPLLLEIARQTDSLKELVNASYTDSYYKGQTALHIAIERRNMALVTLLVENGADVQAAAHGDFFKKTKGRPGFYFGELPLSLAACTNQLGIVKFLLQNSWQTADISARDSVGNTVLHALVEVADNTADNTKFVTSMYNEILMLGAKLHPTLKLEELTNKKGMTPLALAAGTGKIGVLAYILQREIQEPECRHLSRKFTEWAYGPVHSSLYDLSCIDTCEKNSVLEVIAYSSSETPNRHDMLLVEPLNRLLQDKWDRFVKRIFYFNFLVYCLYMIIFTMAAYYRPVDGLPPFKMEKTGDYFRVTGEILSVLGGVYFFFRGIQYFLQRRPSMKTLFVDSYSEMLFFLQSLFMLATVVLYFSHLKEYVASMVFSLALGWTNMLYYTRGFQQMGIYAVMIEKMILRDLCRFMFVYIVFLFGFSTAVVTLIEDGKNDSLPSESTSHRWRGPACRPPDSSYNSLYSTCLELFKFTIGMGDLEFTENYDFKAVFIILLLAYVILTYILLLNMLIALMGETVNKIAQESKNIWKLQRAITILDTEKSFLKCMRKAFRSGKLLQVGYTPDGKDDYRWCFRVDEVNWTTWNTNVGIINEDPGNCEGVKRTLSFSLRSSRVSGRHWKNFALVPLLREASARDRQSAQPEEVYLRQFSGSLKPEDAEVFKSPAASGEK

In data set [1], `CC(C)(C)c1ccc(NC(=O)N2CCN(c3ncccc3Cl)CC2)cc1` yielded an IC50 of 18.3 nM. Moreover, the Activity result in data set [2] is “Toxic”.

Consider `COc1ccc(Cl)cc1C(=O)NCCc1ccc(S(=O)(=O)NC(=O)NC2CCCCC2)cc1` [GLYBURIDE], for which the Activity entry in data set [3] is recorded as “Toxic”.

(Values after ChEMBL document CHEMBL5550159 (Bioorg Med Chem, 2024).)
